# Reference: patent US11382892B2, “Method for administration” (Hoffmann-La Roche Inc., priority 2012, dated 2022)
# Values joined by “and” are separate entries in the source; they are usually repeats but may differ in a detail not shown here. Equal values may be shown once.
# Experiments:
# [1] = system: TUNEL + cells; experiment: TUNEL assay in patient tumor biopsy cells; type: in vivo, human; conditions: for TUNEL + cells (mm2) Average FCBL: cohort average; for TUNEL + cells (mm2) Median FCBL: cohort median; for TUNEL + cells (mm2) FCBL: individual patients, tumor biopsy vs baseline
# Description: (§1) The 10 mg tablets contain hypromellose acetate succinate, mannitol, microcrystalline cellulose, croscarmellose sodium, colloidal silicon dioxide, and magnesium stearate. The film-coat consists of hypromellose, titanium dioxide, talc, triacetin, iron oxide yellow, and iron oxide red. The 50 mg, 200 mg, and 400 mg film coated tablets contain the excipients hypromellose acetate succinate, croscarmellose sodium, colloidal silicon dioxide, and magnesium stearate. The film-coat consists of polyvinyl alcohol, titanium dioxide, polyethylene glycol, talc, iron oxide yellow, iron oxide red, and iron oxide black.
# (§2) Tumor biopsies were collected at baseline and cycle 1, day 5±2.
# Tumor biopsy cells were analyzed via TUNEL (terminal deoxynucleotidyl transferase dUTP nick end labeling) to determine cell apoptosis. TUNEL is a common method for detecting DNA fragmentation that results from apoptotic signaling cascades. The assay relies on the presence of nicks in the DNA which can be identified by terminal deoxynucleotidyl transferase or TdT, an enzyme that will catalyze the addition of dUTPs that are secondarily labeled with a marker.
# [2] = system: Ki-67 protein; experiment: Ki-67 IHC assay in patient tumor biopsies; type: in vivo, human; conditions: for Ki-67 IHC Average % CBL: cohort average; for Ki-67 IHC Median % CBL: cohort median; for Ki-67 IHC % CBL: individual patients, tumor biopsy vs baseline
# Description: as §1, §2
# The Ki-67 protein is a cellular marker for proliferation. It is strictly associated with cell proliferation and can be measured in tissue sections via immunohistochemistry to determine degree of proliferation. Ki-67 protein is present during all active phases of the cell cycle (G1, S, G2, and mitosis), but is absent from resting cells (00).
compound,measurement,setting,value
"COc1cc(C(=O)O)ccc1NC(=O)[C@@H]1N[C@@H](CC(C)(C)C)[C@](C#N)(c2ccc(Cl)cc2F)[C@H]1c1cccc(Cl)c1F [Compound A, 4-{[(2R,3S,4R,5S)-4-(4-Chloro-2-fluoro-phenyl)-3-(3-chloro-2-fluoro-phenyl)-4-cyano-5-(2,2-dimethyl-propyl)-pyrrolidine-2-carbonyl]-amino}-3-methoxy-benzoic acid]",TUNEL + cells (mm2) Average FCBL,[1]; BM-A1 800 mg bid Qwk × 3,1.2
same,TUNEL + cells (mm2) Median FCBL,[1]; BM-A1 800 mg bid Qwk × 3,0.8
same,TUNEL + cells (mm2) FCBL,[1]; BM-A1 800 mg bid Qwk × 3,0.8 (2×) and 3.2 and 0.1
same,TUNEL + cells (mm2) Average FCBL,[1]; BM-A2 1200 mg bid Qwk × 3,2.7
same,TUNEL + cells (mm2) Median FCBL,[1]; BM-A2 1200 mg bid Qwk × 3,2.3
same,TUNEL + cells (mm2) FCBL,[1]; BM-A2 1200 mg bid Qwk × 3,5.3 and 2.3 and 0.9 and 1.6 and 3.3
same,TUNEL + cells (mm2) Average FCBL,[1]; BM-B1 400 mg bid × 5 d,1.7
same,TUNEL + cells (mm2) Median FCBL,[1]; BM-B1 400 mg bid × 5 d,1.8
same,TUNEL + cells (mm2) FCBL,[1]; BM-B1 400 mg bid × 5 d,0.9 (2×) and 1.8 (2×) and 3.2
same,TUNEL + cells (mm2) Average FCBL,[1]; BM-B2 500 mg bid × 3 d,1.7
same,TUNEL + cells (mm2) Median FCBL,[1]; BM-B2 500 mg bid × 3 d,0.9
same,TUNEL + cells (mm2) FCBL,[1]; BM-B2 500 mg bid × 3 d,0.5 and 0.4 and 0.6 and 5.3 and 1.2 and 1.9
same,TUNEL + cells (mm2) Average FCBL,[1]; BM-B3 500 mg qd × 5 d,1.2
same,TUNEL + cells (mm2) Median FCBL,[1]; BM-B3 500 mg qd × 5 d,1.2
same,TUNEL + cells (mm2) FCBL,[1]; BM-B3 500 mg qd × 5 d,0.6 and 1.7 and 1.2
same,apoptosis by TUNEL,[1]; doses and schedules of Table 10,increase in apoptosis
same,Ki-67 IHC Average % CBL,[2]; BM-A1 800 mg bid Qwk × 3,−8.5%
same,Ki-67 IHC Median % CBL,[2]; BM-A1 800 mg bid Qwk × 3,−8.5%
same,Ki-67 IHC % CBL,[2]; BM-A1 800 mg bid Qwk × 3,14% and −31%
same,Ki-67 IHC Average % CBL,[2]; BM-A2 1200 mg bid Qwk × 3,−27.8%
same,Ki-67 IHC Median % CBL,[2]; BM-A2 1200 mg bid Qwk × 3,−33.0%
same,Ki-67 IHC % CBL,[2]; BM-A2 1200 mg bid Qwk × 3,−57% and 30% and −5% and −75% and −33%
same,Ki-67 IHC Average % CBL,[2]; BM-B1 400 mg bid × 5 d,−17.7%
same,Ki-67 IHC Median % CBL,[2]; BM-B1 400 mg bid × 5 d,−13.0%
same,Ki-67 IHC % CBL,[2]; BM-B1 400 mg bid × 5 d,−97% and −13% and 57%
same,Ki-67 IHC Average % CBL,[2]; BM-B2 500 mg bid × 3 d,−53.9%
same,Ki-67 IHC Median % CBL,[2]; BM-B2 500 mg bid × 3 d,−69.8%
same,Ki-67 IHC % CBL,[2]; BM-B2 500 mg bid × 3 d,3% and −70% (2×) and −79%
same,Ki-67 IHC Average % CBL,[2]; BM-B3 500 mg qd × 5 d,−57.1%
same,Ki-67 IHC Median % CBL,[2]; BM-B3 500 mg qd × 5 d,−66.5%
same,Ki-67 IHC % CBL,[2]; BM-B3 500 mg qd × 5 d,−67% and −96% and −8%
same,tumor proliferation via Ki67,[2]; doses and schedules of Table 9,Decrease levels of tumor proliferation
